Reference: US9339509B2, “Methods of use to orally and topically treat acne and other skin conditions by administering a 19-nor containing vitamin D analog with or without a retinoid” (Wisconsin Alumni Research Foundation, priority 2006, dated 2016)
“Also recorded” adds a separate entry of the source.

Assays:
[1] = test system: retinoic acid receptors (RARs); settings: Repa J J et al., 1993; cited from earlier work
Rhino mouse [2] = test: Comedolytic effect of topical application to the Rhino mouse (comedone area); type: in vivo; settings: for comedone area (FIG. 5): 30 vol % ethanol/70% propylene glycol; for comedone area relative to vehicle-treated group (FIG. 11): 72 h after final dose
Description: (§1) Rhino mice were used to topically and orally test the compounds and compositions of the invention. The Rhino mouse is a well-established animal model used to study the comedolytic effects of anti-acne agents including retinoids. (See Boulcier M et al., Experimental Models in Skin Pharmacology, 1990, In Pharmacological Reviews 42:127-15). Mirshahpanah and Maibach, 2007, Cutaneous and Ocular Toxicology 26:195-202). The Rhino mouse model was used to study the therapeutic potential of 2-Methylene-19-nor-20(S)-1α-hydroxy-bishomopregnacalciferol (2MBisP), 19-Nor-26,27-dimethylene-20(S)-2-methylene-1α,25-dihydroxyvitamin D3 (CAGE-3), NEL, 24R-2MD2, Vit-III (17-20E), 2MPregna, 2MP, 20R-2MbisP, 2MTrisP, FF-44, FF-55, HPBS, VD-03 and atRA.
(§2) Animals and dose administration. Rhino mice 6-10 weeks old were dosed via the oral and/or topical route. In the majority of studies, the mice were dosed daily. In one topical study, the efficacy of daily versus intermittent (Monday/Wednesday/Friday) dosing was compared. The mice were weighed three times per week and doses were adjusted weekly based on body weight. The topical formulations were applied to the back of the animal in a maximum volume of 110 μL. The topical formulations were made by mixing the APIs with a topical carrier comprising 70 vol % propylene glycol and 30 vol % ethanol or 30 vol % propylene glycol and 70 vol % ethanol, as indicated. The topical vehicle control was the vehicle carrier solution matched to the formulation containing API and vehicle carrier.
(§3) The oral formulation was made by mixing the APIs with Wesson® soybean oil or NeoBee® oil. The oral dose was delivered to the back of the mouth of each mouse. Mice were sacrificed 4 hours after the final oral dose and 72 hours after the final topical dose. At sacrifice, the dorsal skin was collected for histological studies.
(§4) Comedolytic effect. The extent of the comedolytic effect (i.e., efficacy) was assessed by measuring the average area of the comedones, whereby the smaller the area, the larger the effect. The comedone area was determined by histological analysis of tissue sections based on a method developed in our lab (see FIG. 2). Skin was fixed overnight in 4% paraformaldehyde at 4 deg. C. with gentle agitation and dehydrated the next day into 100% methanol. Samples were embedded in paraffin and a total of nine 10 micron sections 150 microns apart were prepared from each Rhino mouse. Five of the nine sections were digitally imaged (6× magnification) for comedone analysis using Metamorph Imaging Software (trace function). The perimeter of each comedone on the images taken from the 5 sections was then traced using a Wacom Intuos 3 Graphics Tablet interfaced with the software. The number of pixels comprising the area of each individual comedone was obtained and transferred to an Excel spreadsheet, and the mean number of pixels per comedone was obtained for each Rhino mouse. For comedones that were completely healed (area=0) a pixel value approaching 0 (<10) was entered into the spreadsheet. The individual comedone area average for each mouse was then used to calculate the treatment group mean. Results in the figures are expressed in terms of mean±standard error of the mean.
Preparation of topical formulations containing 2MBisP, CAGE-3, 24R-2MD2, VitIII (17-20E), NEL, VD-03, 2MPregna, 2MP, 20R-2MBisP, 2MTrisP, FF-44, FF-55, and HPBS. Separate concentrated ethanolic stocks of 2MBisP, CAGE-3, 24R-2MD2, VitIII (17-20E) and NEL were diluted to a final concentration containing 70 vol % propylene glycol and 30 vol % ethanol or 30 vol % propylene glycol and 70 vol % ethanol as the excipient carrier system. The mixture was thoroughly mixed. The topical dosing formulation delivered the desired dosing amount of drug on a per kilogram body weight basis. A dose ranging from 100-110 μL in volume was administered to the back of the mouse. An average weight of 24 or 30 g/mouse was assumed in dose volume calculations. […]

Rhino mouse [3] = test: Comedolytic effect of oral administration to the Rhino mouse (comedone area); type: in vivo
Description: as §1, §2, §3, §4
Preparation of oral dosing solutions containing 2MBisP, CAGE-3, 24R-2MD2, VitIII (17-20E) and NEL. Separate concentrated stocks of 2MBisP, CAGE-3, 24R-2MD2, VitIII (17-20E) and NEL were obtained in ethanol. The concentration was determined spectrophotometrically using a molar extinction coefficient=42,000 and a λmax=252.7. […] The final dose was delivered in ≦50 μL of oil.
Preparation of oral atRA dosing formulation. A concentrated stock solution containing atRA was prepared in dichloromethane. The atRA concentrated stock solution was diluted into ethanol. The concentration of atRA in that diluted stock solution was determined spectrophotometrically, whereby the molar extinction coefficient=45,200 and λmax=350. The purity of atRA was determined to be >99% by HPLC. […]

Rhino mouse [4] = test: Combination of oral atRA and topical 2MBisP in the Rhino mouse (comedone area, skin morphology); type: in vivo
Experimental: as §2, §3
as §4, with “the mean. […]” for “the mean.”
Preparation of oral atRA dosing formulation. […] The concentration of atRA in that diluted stock solution was determined spectrophotometrically, whereby the molar extinction coefficient=45,200 and λmax=350. The purity of atRA was determined to be >99% by HPLC. […]

[5] = daily topical 3 weeks, 70 vol % ethanol/30 vol % propylene glycol, 220 nmole/kgBW/day

Structure (SMILES): CC1=C(/C=C/C(C)=C/C=C/C(C)=C\C(=O)O)C(C)(C)CCC1 [13-cis retinoic acid, 13-cis-retinoic acid]
- binding to the RARs [1]: does not bind

Structure (SMILES): C=C1[C@H](O)CC(=C/C=C2\CCC[C@]3(C)C([C@@H](C)CC)CC[C@@H]23)C[C@H]1O (stereo partly drawn) [2MBisP, 2-methylene-19-nor-20(S)-1α-hydroxy-bishomopregnacalciferol]
- response vs control in vivo at 0.022 µmol/kg (Rhino mouse [2]; Mus musculus, 504 h, daily topical ca. 3 weeks, 70 vol % ethanol/30 vol % propylene glycol, dose 22 nmol/kg, mean ± SEM, read-out: Comedone Area (% Vehicle)): 97 ± 9%
- response vs control in vivo at 0.069 µmol/kg (Rhino mouse [2]; Mus musculus, 504 h, daily topical ca. 3 weeks, 70 vol % ethanol/30 vol % propylene glycol, dose 69 nmol/kg, mean ± SEM, read-out: Comedone Area (% Vehicle)): 127 ± 12%
- response vs control in vivo at 0.217 µmol/kg (Rhino mouse [2]; Mus musculus, 504 h, daily topical ca. 3 weeks, 70 vol % ethanol/30 vol % propylene glycol, dose 217 nmol/kg, mean ± SEM, read-out: Comedone Area (% Vehicle)): 49 ± 3%
- response vs control in vivo at 0.694 µmol/kg (Rhino mouse [2]; Mus musculus, 504 h, daily topical ca. 3 weeks, 70 vol % ethanol/30 vol % propylene glycol, dose 694 nmol/kg, mean ± SEM, read-out: Comedone Area (% Vehicle)): 35 ± 4%
- response vs control in vivo at 2.187 µmol/kg (Rhino mouse [2]; Mus musculus, 504 h, daily topical ca. 3 weeks, 70 vol % ethanol/30 vol % propylene glycol, dose 2187 nmol/kg, mean ± SEM, read-out: Comedone Area (% Vehicle)): 32 ± 7%
- comedone area (FIG. 5) (Rhino mouse [2]; daily topical 3 weeks, 220 nmole/kgBW/day): no effect
- comedone area (FIG. 5) (Rhino mouse [2]; daily topical 3 weeks, 653 nmole/kgBW/day): near-maximal reduction in comedone area
- comedone area (FIG. 7) (Rhino mouse [2]; daily topical 3 weeks, 70 vol % ethanol/30 vol % propylene glycol, 22 nmole/kgBW/day): no effect
- comedone area relative to vehicle-treated group (FIG. 8, 9, 10) (Rhino mouse [2]; daily topical 3 weeks, 70 vol % ethanol/30 vol % propylene glycol, 217 nmole/kgBW/day): significant reduction in comedone area
- comedone area (FIG. 7) (Rhino mouse [2]; [5]): significant reduction in comedone area
- reduction in comedone area (FIG. 6) (Rhino mouse [2]; [5]): > 50%
- comedone area (FIG. 6) (Rhino mouse [2]; daily topical 3 weeks, 70 vol % ethanol/30 vol % propylene glycol, 653 nmole/kgBW/day): greater reduction in comedone area as compared to the lower dose
- comedone area relative to vehicle-treated group (FIG. 8) (Rhino mouse [2]; daily topical 3 weeks, 70 vol % ethanol/30 vol % propylene glycol, 694 nmole/kgBW/day): significant reduction in comedone area
- comedone area relative to vehicle-treated group (FIG. 11) (Rhino mouse [2]; topical 217 nmole/kgBW daily (total of 22 doses), 70 vol % ethanol/30 vol % propylene glycol): significant reduction in comedone area
- comedone area relative to vehicle-treated group (FIG. 11) (Rhino mouse [2]; topical 217 nmole/kgBW intermittently Monday, Wednesday, Friday (total of 10 doses), 70 vol % ethanol/30 vol % propylene glycol): significant reduction in comedone area
- comedone area vs vehicle control (FIG. 3, FIG. 4) (Rhino mouse [2]; topical 3 weeks, 30 vol % ethanol/70 vol % propylene glycol, 5.4 μg/day (ca. 800 nmole/kgBW/day)): reduction in the comedone area; also recorded: reduced comedone area
- potency in the reduction of comedone area relative to 20R-2MBisP (Rhino mouse [2]; topical, 70 vol % ethanol/30 vol % propylene glycol, more potent than the 20R compound): approximately ½
- comedone area (FIG. 12) (Rhino mouse [3]; oral daily 24 days, 522 nmole/kgBW/day): reduction in the comedone area
- comedone area vs vehicle control group (FIG. 15) (Rhino mouse [4]; 2MBisP alone topically 21 days (0.22 μmole/kgBW/day, 30 vol % ethanol/70 vol % propylene glycol) with oral vehicle 24 days): lacked significant efficacy
- skin morphology, H&E sections (FIG. 16) (Rhino mouse [4]; female Rhino mice, 2MBisP alone topically 0.22 μmole/kgBW/day, 30% ethanol/70% propylene glycol): did not alter skin morphology significantly

Structure (SMILES): CC1=C(/C=C/C(C)=C/C=C/C(C)=C/C(=O)O)C(C)(C)CCC1 [atRA, all-trans-retinoic acid, reference compound]
- comedone size vs vehicle control (FIG. 2) (Rhino mouse [3]; oral, 3 weeks, 0.83 μmole/kgBW): insignificant reduction in comedone size
- comedone size vs vehicle control (FIG. 2) (Rhino mouse [3]; oral, 3 weeks, 16.6 μmole/kgBW): maximal reduction in comedone size
- comedone area, dose dependence (FIG. 2) (Rhino mouse [3]; oral, 3 weeks, various doses): dose-dependent reduction in comedone area
- comedone area vs vehicle control group (FIG. 15) (Rhino mouse [4]; atRA alone orally 24 days (830 nmole/kgBW/day) with topical vehicle 21 days): lacked significant efficacy
- skin morphology vs vehicle control, H&E sections (FIG. 16) (Rhino mouse [4]; female Rhino mice, atRA alone orally 830 nmole/kgBW/day in soybean oil): did not alter skin morphology significantly
